Results published in patent publication US9540366B2, “Ring-fused heterocyclic compound” (Kyowa Hakko Kirin Co., Ltd., priority 2012, dated 2017).
Read-outs that look alike come from different tables or passages of the source.

Biological target: T1, human Cav3.2 T-type Ca2+ channel (Homo sapiens, UniProt O95180)
T1 construct: expressed in transfected cells; host or cells: KJMGER8 cells (Namalwa cell-derived cell line)
Assay: Inhibitory effect for intracellular calcium response via Cav3.2 T-type Ca2+ channels (FLIPR Calcium 3 Assay Kit)
Format: cell-based

[1] = human Cav3.2-expressing KJMGER8 cells (Namalwa-derived), calcium response induced by 5 mmol/L CaCl2, 3 μmol/L mibefradil as reference, read-out: IC50 for the human Cav3.2 T-type Ca2+ current

T1 sequence (O95180 whole entry): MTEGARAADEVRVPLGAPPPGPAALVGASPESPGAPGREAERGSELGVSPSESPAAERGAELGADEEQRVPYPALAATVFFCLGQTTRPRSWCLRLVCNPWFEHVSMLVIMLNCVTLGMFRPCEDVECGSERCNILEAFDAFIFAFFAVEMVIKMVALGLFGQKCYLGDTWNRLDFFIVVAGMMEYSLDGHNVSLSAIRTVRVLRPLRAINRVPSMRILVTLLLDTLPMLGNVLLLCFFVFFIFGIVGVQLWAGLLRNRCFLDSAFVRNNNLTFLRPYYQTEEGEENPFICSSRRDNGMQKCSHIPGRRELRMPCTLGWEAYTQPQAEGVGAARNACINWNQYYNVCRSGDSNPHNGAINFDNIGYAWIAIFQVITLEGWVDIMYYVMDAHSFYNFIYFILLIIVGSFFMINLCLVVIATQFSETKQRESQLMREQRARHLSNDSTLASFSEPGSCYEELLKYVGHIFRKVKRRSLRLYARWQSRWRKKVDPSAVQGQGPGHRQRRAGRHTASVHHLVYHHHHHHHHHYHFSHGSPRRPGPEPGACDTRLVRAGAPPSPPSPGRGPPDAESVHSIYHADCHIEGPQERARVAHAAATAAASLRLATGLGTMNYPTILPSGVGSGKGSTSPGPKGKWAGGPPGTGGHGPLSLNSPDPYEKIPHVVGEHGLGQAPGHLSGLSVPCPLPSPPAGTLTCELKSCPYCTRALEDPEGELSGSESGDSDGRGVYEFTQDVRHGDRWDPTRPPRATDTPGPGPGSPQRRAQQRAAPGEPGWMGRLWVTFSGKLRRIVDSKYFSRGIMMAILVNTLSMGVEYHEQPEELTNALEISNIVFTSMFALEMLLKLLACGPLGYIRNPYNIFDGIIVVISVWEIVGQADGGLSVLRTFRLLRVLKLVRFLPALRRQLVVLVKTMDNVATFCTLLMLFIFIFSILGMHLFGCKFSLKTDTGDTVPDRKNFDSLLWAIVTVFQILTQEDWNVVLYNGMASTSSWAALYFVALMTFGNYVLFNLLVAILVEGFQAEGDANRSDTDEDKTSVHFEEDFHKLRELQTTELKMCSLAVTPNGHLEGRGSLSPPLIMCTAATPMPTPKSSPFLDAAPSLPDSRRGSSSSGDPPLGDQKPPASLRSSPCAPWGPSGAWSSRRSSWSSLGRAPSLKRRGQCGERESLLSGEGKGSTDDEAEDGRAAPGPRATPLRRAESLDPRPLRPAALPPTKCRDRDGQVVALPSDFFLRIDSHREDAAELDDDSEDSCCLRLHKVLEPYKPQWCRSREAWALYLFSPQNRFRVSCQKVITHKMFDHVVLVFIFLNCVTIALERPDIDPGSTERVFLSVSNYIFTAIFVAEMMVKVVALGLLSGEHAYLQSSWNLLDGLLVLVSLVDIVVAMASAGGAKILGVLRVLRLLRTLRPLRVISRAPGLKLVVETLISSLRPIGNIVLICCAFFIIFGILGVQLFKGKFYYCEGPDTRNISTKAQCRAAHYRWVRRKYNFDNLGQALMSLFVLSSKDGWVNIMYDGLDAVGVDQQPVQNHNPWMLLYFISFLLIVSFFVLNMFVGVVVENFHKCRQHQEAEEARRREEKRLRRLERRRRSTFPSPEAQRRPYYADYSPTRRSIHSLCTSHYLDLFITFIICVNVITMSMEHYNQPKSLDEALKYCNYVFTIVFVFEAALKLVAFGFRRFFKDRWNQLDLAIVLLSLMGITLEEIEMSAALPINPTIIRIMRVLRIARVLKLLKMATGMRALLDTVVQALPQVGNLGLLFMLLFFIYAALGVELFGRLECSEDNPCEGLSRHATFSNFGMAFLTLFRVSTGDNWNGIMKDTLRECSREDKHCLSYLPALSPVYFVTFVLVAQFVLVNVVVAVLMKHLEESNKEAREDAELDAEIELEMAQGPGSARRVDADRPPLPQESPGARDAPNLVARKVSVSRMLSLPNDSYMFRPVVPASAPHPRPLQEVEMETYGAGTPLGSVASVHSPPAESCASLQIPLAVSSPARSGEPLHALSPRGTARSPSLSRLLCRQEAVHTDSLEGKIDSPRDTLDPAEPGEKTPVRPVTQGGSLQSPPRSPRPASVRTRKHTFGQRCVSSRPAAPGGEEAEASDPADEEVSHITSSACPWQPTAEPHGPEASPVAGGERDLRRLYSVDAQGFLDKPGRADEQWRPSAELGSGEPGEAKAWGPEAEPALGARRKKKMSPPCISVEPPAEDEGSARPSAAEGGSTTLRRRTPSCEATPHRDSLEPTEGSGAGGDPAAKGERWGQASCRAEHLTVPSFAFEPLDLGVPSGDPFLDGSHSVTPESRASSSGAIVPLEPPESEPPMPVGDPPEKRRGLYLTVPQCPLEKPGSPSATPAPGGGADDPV

SMILES	IC50 [nM]	IC50 [1] [nM]
N#Cc1cc(C(=O)NC2CCC2)cc2nc(C(F)(F)F)c(CC3CCC(F)(F)CC3)n12 [Compound 54, 5-Cyano-N-cyclobutyl-3-[(4,4-difluorocyclohexyl)methyl]-2-(trifluoromethyl)imidazo[1,2-a]pyridine-7-carboxamide]	≤ 100	–
N#Cc1cc(C(=O)N[C@H]2CC[C@H](O)CC2)cc2nc(C(F)(F)F)c(CC3CCC(F)(F)CC3)n12 [Compound 56, 5-Cyano-3-[(4,4-difluorocyclohexyl)methyl]-N-[(1R,4R)-4-hydroxycyclohexyl]-2-(trifluoromethyl)imidazo[1,2-a]pyridine-7-carboxamide]	≤ 100	–
CC1(C)CC(NC(=O)c2cc(C#N)n3c(CC4CCC(F)(F)CC4)c(C(F)(F)F)nc3c2)CCO1 (centres unmarked) [Compound 57, 5-Cyano-3-[(4,4-difluorocyclohexyl)methyl]-N-(2,2-dimethyltetrahydro-2H-pyran-4-yl)-2-(trifluoromethyl)imidazo[1,2-a]pyridine-7-carboxamide]	≤ 100	–
N#Cc1cc(C(=O)NC2(CO)CCOCC2)cc2nc(C(F)(F)F)c(CC3CCC(F)(F)CC3)n12 [Compound 58, 5-Cyano-3-[(4,4-difluorocyclohexyl)methyl]-N-[4-(hydroxymethyl)tetrahydro-2H-pyran-4-yl]-2-(trifluoromethyl)imidazo[1,2-a]pyridine-7-carboxamide]	≤ 100	–
N#Cc1cc(C(=O)NCC2COCCO2)cc2nc(C(F)(F)F)c(CC3CCC(F)(F)CC3)n12 (centres unmarked) [Compound 59, N-[(1,4-Dioxan-2-yl)methyl]-5-cyano-3-[(4,4-difluorocyclohexyl)methyl]-2-(trifluoromethyl)imidazo[1,2-a]pyridine-7-carboxamide]	–	≤ 100
N#Cc1cc(C(=O)NC2COC2)cc2nc(C(F)(F)F)c(CC3CCC(F)(F)CC3)n12 [Compound 60]	–	≤ 100
N#Cc1cc(C(=O)NC2CCOC2)cc2nc(C(F)(F)F)c(CC3CCC(F)(F)CC3)n12 (centres unmarked) [Compound 62]	≤ 100	–
CC(C)(NC(=O)c1cc(C#N)n2c(CC3CCC(F)(F)CC3)c(C(F)(F)F)nc2c1)C1CCOCC1 [Compound 63, 5-Cyano-3-[(4,4-difluorocyclohexyl)methyl]-N-[2-(tetrahydro-2H-pyran-4-yl)propan-2-yl]-2-(trifluoromethyl)imidazo[1,2-a]pyridine-7-carboxamide]	≤ 100	–
N#Cc1cc(C(=O)NC2CCCOC2)cc2nc(C(F)(F)F)c(CC3CCC(F)(F)CC3)n12 (centres unmarked) [Compound 64]	–	≤ 100
N#Cc1cc(C(=O)NOC2CCOCC2)cc2nc(C(F)(F)F)c(CC3CCC(F)(F)CC3)n12 [Compound 65]	≤ 100	–
N#Cc1cc(C(=O)NC2(C3CCOCC3)CC2)cc2nc(C(F)(F)F)c(CC3CCC(F)(F)CC3)n12 [Compound 66, 5-Cyano-3-[(4,4-difluorocyclohexyl)methyl]-N-[1-(tetrahydro-2H-pyran-4-yl)cyclopropyl]-2-(trifluoromethyl)imidazo[1,2-a]pyridine-7-carboxamide]	≤ 100	–
N#Cc1cc(C(=O)NCC(=O)c2ccccc2)cc2nc(C(F)(F)F)c(CC3CCC(F)(F)CC3)n12 [Compound 67, 5-Cyano-3-[(4,4-difluorocyclohexyl)methyl]-N-(2-oxo-2-phenylethyl)-2-(trifluoromethyl)imidazo[1,2-a]pyridine-7-carboxamide]	≤ 100	–
N#Cc1cc(C(=O)NCC2(O)CC2)cc2nc(C(F)(F)F)c(CC3CCC(F)(F)CC3)n12 [Compound 69, 5-Cyano-3-[(4,4-difluorocyclohexyl)methyl]-N-[(1-hydroxycyclopropyl)methyl]-2-(trifluoromethyl)imidazo[1,2-a]pyridine-7-carboxamide]	≤ 100	–
N#Cc1cc(C(=O)NC2CCC3(CC2)COC3)cc2nc(C(F)(F)F)c(CC3CCC(F)(F)CC3)n12 [Compound 70, 5-Cyano-3-[(4,4-difluorocyclohexyl)methyl]-N-(2-oxaspiro[3.5]nonan-7-yl)-2-(trifluoromethyl)imidazo[1,2-a]pyridine-7-carboxamide]	–	≤ 100
Cc1cc(C(=O)NOC2CCOCC2)cc2nc(C(F)(F)F)c(CC3CCC(F)(F)CC3)n12 [Compound 72, 3-[(4,4-Difluorocyclohexyl)methyl]-5-methyl-N-(tetrahydro-2H-pyran-4-yloxy)-2-(trifluoromethyl)imidazo[1,2-a]pyridine-7-carboxamide]	≤ 100	–
Cc1cc(-c2nc3c([nH]2)CCCC3)cc2nc(C(F)(F)F)c(CC3CCC(F)(F)CC3)n12 [Compound 73, 2-{3-[(4,4-Difluorocyclohexyl)methyl]-5-methyl-2-(trifluoromethyl)imidazo[1,2-a]pyridin-7-yl}-4,5,6,7-tetrahydro-1H-benzo[d]imidazol]	≤ 100	–

SMILES	IC50 [nM]	IC50 [1] [nM]
Cc1cc(C(=O)NC2CCCOCC2)cc2nc(C(F)(F)F)c(CC3CCC(F)(F)CC3)n12 (centres unmarked) [Compound 74, 3-[(4,4-Difluorocyclohexyl)methyl]-5-methyl-N-(oxepan-4-yl)-2-(trifluoromethyl)imidazo[1,2-a]pyridine-7-carboxamide]	≤ 100	–
Cc1cc(C(=O)NC2(C3CCOCC3)CC2)cc2nc(C(F)(F)F)c(CC3CCC(F)(F)CC3)n12 [Compound 75, 3-[(4,4-Difluorocyclohexyl)methyl]-5-methyl-N-[1-(tetrahydro-2H-pyran-4-yl)cyclopropyl]-2-(trifluoromethyl)imidazo[1,2-a]pyridine-7-carboxamide]	–	≤ 100
N#Cc1cc(C(=O)NC2CC2)cc2nc(C(F)(F)F)c(CC3CCC(F)(F)CC3)n12 [Compound 76, 5-Cyano-N-cyclopropyl-3-[(4,4-difluorocyclohexyl)methyl]-2-(trifluoromethyl)imidazo[1,2-a]pyridine-7-carboxamide]	≤ 100	–
O=C(NCC1CC1)c1cc(Cl)n2c(CC3CCC(F)(F)CC3)c(C(F)(F)F)nc2c1 [Compound 77, 5-Chloro-N-(cyclopropylmethyl)-3-[(4,4-difluorocyclohexyl)methyl]-2-(trifluoromethyl)imidazo[1,2-a]pyridine-7-carboxamide]	≤ 100	–
Cc1cc(CC(=O)NC2CCOCC2)cc2nc(C(F)(F)F)c(CC3CCC(F)(F)CC3)n12 [Compound 78, 2-{3-[(4,4-Difluorocyclohexyl)methyl]-5-methyl-2-(trifluoromethyl)imidazo[1,2-a]pyridin-7-yl}-N-(tetrahydro-2H-pyran-4-yl)acetamide]	≤ 100	–
Cc1cc(C(=O)NC2CC(CO)(CO)C2)cc2nc(C(F)(F)F)c(CC3CCC(F)(F)CC3)n12 [Compound 80, N-[3,3-Bis(hydroxymethyl)cyclobutyl]-3-[(4,4-difluorocyclohexyl)methyl]-5-methyl-2-(trifluoromethyl)imidazo[1,2-a]pyridine-7-carboxamide]	≤ 100	–
CC(C)(NC(=O)c1cc(Cl)n2c(CC3CCC(F)(F)CC3)c(C(F)(F)F)nc2c1)C1CCOCC1 [Compound 81, 5-Chloro-3-[(4,4-difluorocyclohexyl)methyl]-N-[2-(tetrahydro-2H-pyran-4-yl)propan-2-yl]-2-(trifluoromethyl)imidazo[1,2-a]pyridine-7-carboxamide]	≤ 100	–
Cc1cc(C(O)C(O)C2CCOCC2)cc2nc(C(F)(F)F)c(CC3CCC(F)(F)CC3)n12 (centres unmarked) [Compound 82, 1-{3-[(4,4-Difluorocyclohexyl)methyl]-5-methyl-2-(trifluoromethyl)imidazo[1,2-a]pyridin-7-yl}-2-(tetrahydro-2H-pyran-4-yl)ethane-1,2-diol]	≤ 100	–
Cc1cc(C(=O)C(O)C2CCOCC2)cc2nc(C(F)(F)F)c(CC3CCC(F)(F)CC3)n12 (centres unmarked) [Compound 83, 1-{3-[(4,4-Difluorocyclohexyl)methyl]-5-methyl-2-(trifluoromethyl)imidazo[1,2-a]pyridin-7-yl}-2-hydroxy-2-(tetrahydro-2H-pyran-4-yl)ethanone]	–	≤ 100
Cc1cc(CC(=O)NOC2CCOCC2)cc2nc(C(F)(F)F)c(CC3CCC(F)(F)CC3)n12 [Compound 84, 2-{3-[(4,4-Difluorocyclohexyl)methyl]-5-methyl-2-(trifluoromethyl)imidazo[1,2-a]pyridin-7-yl}-N-(tetrahydro-2H-pyran-4-yloxy)acetamide]	≤ 100	–
Cc1cc(CC(=O)Nc2ccccc2N)cc2nc(C(F)(F)F)c(CC3CCC(F)(F)CC3)n12 [Compound 85, N-(2-Aminophenyl)-2-{3-[(4,4-difluorocyclohexyl)methyl]-5-methyl-2-(trifluoromethyl)imidazo[1,2-a]pyridin-7-yl}acetamide]	–	≤ 100
O=C(NCC1(O)CCOCC1)c1cc(Cl)n2c(CC3CCC(F)(F)CC3)c(C(F)(F)F)nc2c1 [Compound 86, 5-Chloro-3-[(4,4-difluorocyclohexyl)methyl]-N-[(4-hydroxytetrahydro-2H-pyran-4-yl)methyl]-2-(trifluoromethyl)imidazo[1,2-a]pyridine-7-carboxamide]	≤ 100	–
Cc1cc(Cc2nc3ccccc3[nH]2)cc2nc(C(F)(F)F)c(CC3CCC(F)(F)CC3)n12 [Compound 87, 2-({3-[(4,4-Difluorocyclohexyl)methyl]-5-methyl-2-(trifluoromethyl)imidazo[1,2-a]pyridin-7-yl}methyl)-1H-benzo[d]imidazol]	–	≤ 100
Cc1cc(C(=O)NC2CC3(COC3)C2)cc2nc(C(F)(F)F)c(CC3CCC(F)(F)CC3)n12 [Compound 88, 3-[(4,4-Difluorocyclohexyl)methyl]-5-methyl-N-(2-oxaspiro[3.3]heptan-6-yl)-2-(trifluoromethyl)imidazo[1,2-a]pyridine-7-carboxamide]	≤ 100	–
Cc1cc(C(C)C(=O)NC2CCOCC2)cc2nc(C(F)(F)F)c(CC3CCC(F)(F)CC3)n12 (centres unmarked) [Compound 89, 2-{3-[(4,4-Difluorocyclohexyl)methyl]-5-methyl-2-(trifluoromethyl)imidazo[1,2-a]pyridin-7-yl}-N-(tetrahydro-2H-pyran-4-yl)propanamide]	≤ 100	–
Cc1cc(C(O)C(O)c2ccccc2)cc2nc(C(F)(F)F)c(CC3CCC(F)(F)CC3)n12 (centres unmarked) [Compound 94, 1-{3-[(4,4-Difluorocyclohexyl)methyl]-5-methyl-2-(trifluoromethyl)imidazo[1,2-a]pyridin-7-yl}-2-phenylethane-1,2-diol]	≤ 100	–
